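Test compounds were applied to cells in 96-well plates for 48 hours at 5 doses. GI50 is the concentration that inhibits growth by half.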 Active and inactive are the calls of the source. No stated cut-off is given here; in the data, active = GI50 up to about 1.1 µM and inactive = higher.
Experiments:
Test in all cases: DTP human tumour cell line panel, 48 h
[1] = system: HT-29
[2] = system: DMS-114
[3] = system: M19-MEL
[4] = system: RPMI-8226
[5] = system: CCRF-CEM
[6] = system: RXF 393
[7] = system: UACC-62
[8] = system: OVCAR-8
[9] = system: SK-MEL-28
[10] = system: OVCAR-5
[11] = system: SNB-78
[12] = system: NCI-H460
[13] = system: HCT-15
[14] = system: SNB-19
[15] = system: DMS-273
[16] = system: OVCAR-3
[17] = system: 786-0
[18] = system: SF-539
[19] = system: HCC 2998
[20] = system: ACHN
[21] = system: SNB-75
[22] = system: SF-295
[23] = system: SR
[24] = system: M14
[25] = system: OVCAR-4
[26] = system: HL-60
[27] = system: KM12
[28] = system: A549
[29] = system: TK-10
[30] = system: Malme-3M
[31] = system: SF-268
[32] = system: SW-620
[33] = system: U-251
[34] = system: SN12C
[35] = system: HOP-18
[36] = system: NCI-H23
[37] = system: EKVX
[38] = system: NCI-H226
[39] = system: SK-OV-3
[40] = system: K562
[41] = system: LOX IMVI
[42] = system: SK-MEL-5
[43] = system: UO-31
[44] = system: IGROV-1
[45] = system: MOLT-4
[46] = system: DLD-1
[47] = system: A498
[48] = system: LXFL 529
[49] = system: HCT-116
[50] = system: KM-20L2
[51] = system: CAKI-1
[52] = system: HOP-92
[53] = system: HOP-62
[54] = system: NCI-H522
[55] = system: SK-MEL-2
[56] = system: COLO 205
[57] = system: UACC-257

SMILES: C=CC[P@]1(=O)O[C@H](c2ccccc2)[C@H](C)N1C
- GI50 [1]: > 100 µM (inactive)
- GI50 [2]: > 100 µM (inactive)
- GI50 [3]: > 100 µM (inactive)
- GI50 [4]: > 100 µM (inactive)
- GI50 [5]: > 100 µM (inactive)
- GI50 [6]: > 100 µM (inactive)
- GI50 [7]: > 100 µM (inactive)
- GI50 [8]: > 100 µM (inactive)
- GI50 [9]: > 100 µM (inactive)
- GI50 [10]: > 100 µM (inactive)
- GI50 [11]: > 100 µM (inactive)
- GI50 [12]: > 100 µM (inactive)
- GI50 [13]: > 100 µM
- GI50 [14]: > 100 µM (inactive)
- GI50 [15]: > 100 µM (inactive)
- GI50 [16]: > 100 µM (inactive)
- GI50 [17]: > 100 µM (inactive)
- GI50 [18]: > 100 µM (inactive)
- GI50 [19]: > 100 µM (inactive)
- GI50 [20]: > 100 µM (inactive)
- GI50 [21]: > 100 µM (inactive)
- GI50 [22]: > 100 µM (inactive)
- GI50 [23]: > 100 µM (inactive)
- GI50 [24]: > 100 µM (inactive)
- GI50 [25]: > 100 µM (inactive)
- GI50 [26]: > 100 µM (inactive)
- GI50 [27]: > 100 µM (inactive)
- GI50 [28]: > 100 µM (inactive)
- GI50 [29]: > 100 µM (inactive)
- GI50 [30]: > 100 µM (inactive)
- GI50 [31]: > 100 µM (inactive)
- GI50 [32]: > 100 µM (inactive)
- GI50 [33]: > 100 µM (inactive)
- GI50 [34]: > 100 µM (inactive)
- GI50 [35]: 79.1 µM (inactive)
- GI50 [36]: > 100 µM (inactive)
- GI50 [37]: > 100 µM (inactive)
- GI50 [38]: > 100 µM (inactive)
- GI50 [39]: > 100 µM (inactive)
- GI50 [40]: > 100 µM (inactive)
- GI50 [41]: > 100 µM (inactive)
- GI50 [42]: > 100 µM (inactive)
- GI50 [43]: > 100 µM (inactive)
- GI50 [44]: > 100 µM (inactive)
- GI50 [45]: > 100 µM (inactive)
- GI50 [46]: > 100 µM (inactive)
- GI50 [47]: > 100 µM (inactive)
- GI50 [48]: > 100 µM (inactive)

SMILES: Cc1nnc2n1N=C(c1ccc(-c3ccc([N+](=O)[O-])cc3)o1)CS2
- GI50 [49]: > 100 µM (inactive)
- GI50 [3]: > 100 µM (inactive)
- GI50 [4]: > 100 µM (inactive)
- GI50 [50]: > 100 µM (inactive)
- GI50 [7]: > 100 µM (inactive)
- GI50 [8]: > 100 µM (inactive)
- GI50 [9]: > 100 µM (inactive)
- GI50 [10]: > 100 µM (inactive)
- GI50 [11]: > 100 µM (inactive)
- GI50 [51]: > 100 µM (inactive)
- GI50 [12]: > 100 µM (inactive)
- GI50 [13]: > 100 µM
- GI50 [14]: > 100 µM (inactive)
- GI50 [15]: > 100 µM (inactive)
- GI50 [16]: > 100 µM (inactive)
- GI50 [52]: > 100 µM (inactive)
- GI50 [17]: > 100 µM (inactive)
- GI50 [18]: > 100 µM (inactive)
- GI50 [53]: > 100 µM (inactive)
- GI50 [19]: > 100 µM (inactive)
- GI50 [20]: > 100 µM (inactive)
- GI50 [21]: > 100 µM (inactive)
- GI50 [22]: > 100 µM (inactive)
- GI50 [23]: > 100 µM (inactive)
- GI50 [24]: > 100 µM (inactive)
- GI50 [25]: > 100 µM (inactive)
- GI50 [26]: > 100 µM (inactive)
- GI50 [27]: > 100 µM (inactive)
- GI50 [28]: > 100 µM (inactive)
- GI50 [54]: > 100 µM (inactive)
- GI50 [29]: > 100 µM (inactive)
- GI50 [30]: > 100 µM (inactive)
- GI50 [55]: > 100 µM (inactive)
- GI50 [31]: > 100 µM (inactive)
- GI50 [32]: > 100 µM (inactive)
- GI50 [33]: > 100 µM (inactive)
- GI50 [34]: > 100 µM (inactive)
- GI50 [36]: 35.1 µM (inactive)
- GI50 [38]: > 100 µM (inactive)
- GI50 [39]: > 100 µM (inactive)
- GI50 [40]: > 100 µM (inactive)
- GI50 [41]: > 100 µM (inactive)
- GI50 [43]: > 100 µM (inactive)
- GI50 [44]: > 100 µM (inactive)
- GI50 [56]: > 100 µM (inactive)
- GI50 [45]: > 100 µM (inactive)
- GI50 [46]: > 100 µM (inactive)
- GI50 [48]: > 100 µM (inactive)
- GI50 [57]: > 100 µM (inactive)
